Measured values as given in PMC6278467, “Isolation and Identification of Potent Antidiabetic Compounds from Antrodia cinnamomea—An Edible Taiwanese Mushroom” (Molecules, 2018).
≈ marks a conversion by molar mass, not a printed value.

Biological target: T1, Saccharomyces cerevisiae α-glucosidase
T1 construct: gene MAL12; commercial enzyme from Sigma Chemical Co
Experiment: pNPG hydrolysis, absorbance at […] nm
Format: biochemical
Conditions: p-NPG (10 mmol/L stock, 50 μL), 0.1 mol/L potassium phosphate pH 7, 37 °C, 20 min preincubation

[1] = value lies below the stated tested range (0.02-0.25, unit printed as μg/mL in footnote)

Row | Compound | EC50 | EC50 [1]
1 | C=C(CC[C@@H](C)[C@H]1CC[C@H]2C3=C(C(=O)C[C@]12C)[C@@]1(C)CC[C@@H](O)[C@](C)(O)[C@@H]1C[C@@H]3O)[C@@H](C)C(=O)O [compound 2, 25R-antcin K] | 54 ± 0.4 µg/mL (≈ 111 µM) | –
2 | C=C(CC[C@@H](C)[C@H]1CC[C@H]2C3=C(C(=O)C[C@]12C)[C@@]1(C)CCC(=O)[C@@H](C)[C@@H]1CC3=O)[C@H](C)C(=O)O [compound 5, 25S-antcin B] | 210 ± 7.6 µg/mL (≈ 448 µM) | –
3 | C=C(CC[C@@H](C(=O)O)[C@H]1CC[C@@]2(C)C3=CC[C@H]4C(C)(C)[C@@H](O)CC[C@]4(C)C3=CC[C@]12C)C(C)C [compound 7, dehydroeburicoic acid] | – | 18 ± 0.2 µg/mL (≈ 38.4 µM)
4 | C=C(CC[C@@H](C(=O)O)[C@H]1CC[C@@]2(C)C3=C(CC[C@]12C)[C@@]1(C)CC[C@H](O)C(C)(C)[C@@H]1CC3)C(C)C [compound 8, eburicoic acid] | – | 12 ± 0.4 µg/mL (≈ 25.5 µM)
